Assay results from patent US12478574B2, “Oral care compositions” (Colgate-Palmolive Company, priority 2016, dated 2025).

Assay: Atomic Absorption analysis of top and bottom layers for Zn2+
Assay type: physicochemical
Conditions: overall 1% ZnCl2 (4800 ppm)
Protocol: Results are similar with Zn^2+ as the cation. […] The concentration of Zn^2+ in the top layer was measured as 1400 ppm Zn^2+ while the bottom was 8800 ppm, i.e., 6.3 fold higher concentration vs. the top.

Zn2+ concentration, bottom vs. the top: 6.3 fold
concentration of Zn2+ in the bottom layer: 8800 ppm
concentration of Zn2+ in the top layer: 1400 ppm
Compound: [Cl-].[Cl-].[Zn+2] [ZnCl2]
